Laboratory results reported in the NIST ThermoML archive (doi:10.1021/je050089u).

Test: excess molar enthalpy (molar enthalpy of mixing); xn = mol fraction of the nth substance listed
Conditions: Fluid (supercritical or subcritical phases)

COC(=O)OC [dimethyl carbonate] + O=C=O
excess molar enthalpy [kcal/mol]
Conditions	298.15 K	303.15 K
5000 kPa, x2 = 0.0793	-0.207	-0.237
5000 kPa, x2 = 0.1538	-0.427	-0.446
5000 kPa, x2 = 0.224	-0.636	-0.641
5000 kPa, x2 = 0.2902	-0.832	-0.833
5000 kPa, x2 = 0.3528	-1.02	-1.01
5000 kPa, x2 = 0.4121	-1.15	-1.19
5000 kPa, x2 = 0.4683	-1.33	-1.33
5000 kPa, x2 = 0.5216	-1.48	-1.48
5000 kPa, x2 = 0.5723	-1.59	-1.6
5000 kPa, x2 = 0.6206	-1.71	-1.71
5000 kPa, x2 = 0.6666	-1.82	-1.83
5000 kPa, x2 = 0.7104	-1.92	-1.93
5000 kPa, x2 = 0.7523	-1.99	-2.01
5000 kPa, x2 = 0.7686	–	-2.04
5000 kPa, x2 = 0.7766	–	-2.04
5000 kPa, x2 = 0.7924	-2.07	–
5000 kPa, x2 = 0.8307	-2.13	-1.48
5000 kPa, x2 = 0.8382	-2.09	–
5000 kPa, x2 = 0.8674	-1.69	-1.15
5000 kPa, x2 = 0.9026	-1.26	-0.913
5000 kPa, x2 = 0.9364	-0.785	-0.571
5000 kPa, x2 = 0.9688	-0.384	-0.254
5000 kPa, x2 = 0.9969	0.0153	–
5500 kPa, x2 = 0.0798	–	-0.214
5500 kPa, x2 = 0.1548	-0.4	-0.438
5500 kPa, x2 = 0.2253	-0.618	-0.619
5500 kPa, x2 = 0.2918	-0.794	-0.798
5500 kPa, x2 = 0.3546	-0.967	-0.989
5500 kPa, x2 = 0.4139	-1.12	-1.15
5500 kPa, x2 = 0.4702	-1.27	-1.3
5500 kPa, x2 = 0.5235	-1.4	-1.41
5500 kPa, x2 = 0.5742	-1.52	-1.54
5500 kPa, x2 = 0.6223	-1.61	-1.64
5500 kPa, x2 = 0.6682	-1.73	-1.75
5500 kPa, x2 = 0.712	-1.82	-1.85
5500 kPa, x2 = 0.7537	-1.91	-1.92
5500 kPa, x2 = 0.7936	-1.98	-1.98
5500 kPa, x2 = 0.8318	-2.02	-2.02
5500 kPa, x2 = 0.8392	–	-2.01
5500 kPa, x2 = 0.8466	–	-1.89
5500 kPa, x2 = 0.8683	-2.04	-1.62
5500 kPa, x2 = 0.9033	-2.03	-1.18
5500 kPa, x2 = 0.9368	-1.51	-0.733
5500 kPa, x2 = 0.9691	-0.767	-0.331
6000 kPa, x2 = 0.0803	–	-0.202
6000 kPa, x2 = 0.1557	-0.389	-0.41
6000 kPa, x2 = 0.2265	-0.558	-0.6
6000 kPa, x2 = 0.2932	-0.797	-0.78
6000 kPa, x2 = 0.3561	-0.905	-0.923
6000 kPa, x2 = 0.4156	-1.04	-1.1
6000 kPa, x2 = 0.4718	-1.19	-1.23
6000 kPa, x2 = 0.5252	-1.29	-1.36
6000 kPa, x2 = 0.5758	-1.4	-1.47
6000 kPa, x2 = 0.6239	-1.52	-1.58
6000 kPa, x2 = 0.6697	-1.62	-1.67
6000 kPa, x2 = 0.7134	-1.69	-1.76
6000 kPa, x2 = 0.755	-1.73	-1.82
6000 kPa, x2 = 0.7947	-1.8	–
6000 kPa, x2 = 0.8327	-1.85	–
6000 kPa, x2 = 0.8691	-1.87	–
6000 kPa, x2 = 0.9039	-1.89	–
6000 kPa, x2 = 0.9502	-1.86	–
6000 kPa, x2 = 0.9693	-1.78	–
6000 kPa, x2 = 0.9817	-0.864	–
